Values quoted from earlier work as cited in patent US20200338016A1, “COMBINATION BROAD-SPECTRUM ANTIBIOTIC PREPARATIONS FOR DRUG-RESISTANT PATHOGENS” (priority 2019, published 2020).
Like-named read-outs stand apart in the source and are kept apart here.

How the values were obtained:
[1] = tested on: antibiotic-resistant streptococcus; conditions: 32 strains of antibiotic-resistant streptococcus
[2] = tested on: MRSA; conditions: for MBEC: Minimal Biofilm Eradication Concentration, single agent; for MIC: Minimal Inhibitory Concentration
[3] = tested on: multidrug resistant Klebsiella pneumonia; conditions: twenty strains of multidrug resistant Klebsiella pneumonia
[4] = tested on: antibiotic-resistant bacteria; conditions: against antibiotic-resistant bacteria
[5] = tested on: antibiotic resistant bacteria; conditions: four antibiotic resistant bacteria
[6] = tested on: methicillin-resistant Staphylococus aureus
[7] = tested on: extensively multidrug resistant Acinetobacter baumannii
[8] = tested on: multidrug-resistant Acinetobacter baumannii
[9] = tested on: antibiotic resistant C. albicans
[10] = tested on: methicillin-resistant Staphylococcus aureus; conditions: MRSA
[11] = tested on: antibiotic resistant bacteria; conditions: four strains of antibiotic resistant bacteria; extracted from horseradish
[12] = tested on: multidrug resistant Acinetobacter baumannii; conditions: six strains of multidrug resistant Acinetobacter baumannii
[13] = tested on: Escherichia coli (NCTC 10418)
[14] = tested on: Staphylococcus aureus (NCTC 6571)
[15] = tested on: Bacillus subtilis (NCTC 8236)
[16] = tested on: Proteus vulgaris (NCTC 4175)
[17] = tested on: Candida albicans (ATCC 10231)
[18] = tested on: Aspergillus niger (ATCC 10578)
[19] = tested on: antibiotic resistant Staphylococcus aureus

Q: With `Cc1ccc(C(C)C)cc1O` [Carvacrol] as the compound, how does the concentration that inhibits [1] read?
A: 256 micrograms per milliliter

Q: And the MBEC [2]?
A: 0.04 percentage of volume

Q: What about the MIC [2] of the same compound?
A: 0.02 percentage of volume

Q: What does the source list for `O=C(O[C@@H]1Cc2c(O)cc(O)cc2O[C@@H]1c1cc(O)c(O)c(O)c1)c1cc(O)c(O)c(O)c1` [EGCG, epigallocatechin gallate]?
A: concentration that kills [3]: 1024 microgram per milliliter; antibiotic properties (in words) [4]: antibiotic properties

Q: Which MBC ([2]; Minimal Bactericidal Concentration) does the source give for `C=CCc1ccc(O)c(OC)c1` [Eugenol] here?
A: 0.08 percentage of volume

Q: And the MBEC [2]?
A: 0.08 percentage of volume

Q: And the MIC [2]?
A: 0.04 percentage of volume

Q: Which concentration that kills [3] does the source give for `O=C(O)/C=C/c1ccc(O)c(O)c1` [caffeic acid] here?
A: 1024 microgram per milliliter

Q: Which “antibiotic properties (in words)” value [4] does the source give for `Cn1c(=O)c2c(ncn2C)n(C)c1=O` [caffeine] here?
A: antibiotic properties

Q: What does the source list for `O=C(/C=C/c1ccc(O)c(O)c1)O[C@@H]1C[C@](O)(C(=O)O)C[C@@H](O)[C@H]1O` [chlorogenic acid]?
A: concentration that kills [5]: 5 milligrams per milliliter; antibiotic properties (in words) [4]: antibiotic properties

Q: Which concentration that kills [6] does the source give for `CC(C)=CCCC(C)=CC=O` [citral] here?
A: 0.06%

Q: Which concentration that inhibits [7] does the source give for `C[C@H]1[C@H]2CC[C@H]3[C@@H]4CC=C5C[C@@H](N(C)C)CC[C@]5(C)[C@H]4CC[C@]23CN1C` [conessine] here?
A: 10 milligrams per liter

Q: For `O=C(O[C@@H]1O[C@@H]2COC(=O)c3cc(O)c(O)c(O)c3-c3c(cc(O)c(O)c3O)C(=O)O[C@H]([C@H]1O)[C@@H]2O)c1cc(O)c(O)c(O)c1` [corilagin], which concentration that inhibits [8] is on record?
A: 1,000 micrograms per milliliter

Q: For `O=C(O[C@@H]1Cc2c(O)cc(O)cc2O[C@@H]1c1ccc(O)cc1)c1cc(O)c(O)c(O)c1` [epiafzelechin gallate], which “antibiotic properties (in words)” value [4] is on record?
A: antibiotic properties

Q: With `Oc1ccc([C@H]2Oc3cc(O)cc(O)c3C[C@H]2O)cc1` [epiafzelechin] as the compound, how does the “antibiotic properties (in words)” value [4] read?
A: antibiotic properties

Q: With `O=C(O[C@@H]1Cc2c(O)cc(O)cc2O[C@@H]1c1ccc(O)c(O)c1)c1cc(O)c(O)c(O)c1` [epicatechin gallate] as the compound, how does the “antibiotic properties (in words)” value [4] read?
A: antibiotic properties

Q: For `Oc1cc(O)c2c(c1)O[C@H](c1cc(O)c(O)c(O)c1)[C@H](O)C2` [epigallocatechin], which “antibiotic properties (in words)” value [4] is on record?
A: antibiotic properties

Q: With `COc1cc(/C=C/C(=O)O)ccc1O` [ferulic acid] as the compound, how does the concentration that kills [5] read?
A: 5 milligrams per milliliter

Q: With `Oc1cc(O)c2c(c1)O[C@H](c1cc(O)c(O)c(O)c1)[C@@H](O)C2` [gallocatechin] as the compound, how does the “antibiotic properties (in words)” value [4] read?
A: antibiotic properties

Q: With `CC(C)=CCC/C(C)=C/CO` [geraniol] as the compound, how does the concentration that inhibits [9] read?
A: 1580 micrograms per milliliter

Q: Which concentration that kills [10] does the source give for `CC1(C)[C@@H](O)CC[C@]2(C)[C@H]3C(=O)C=C4[C@@H]5C[C@@](C)(C(=O)O)CC[C@]5(C)CC[C@@]4(C)[C@]3(C)CC[C@@H]12` [glycerrhetinic acid] here?
A: 0.223 µM

Q: Which concentration that kills [5] does the source give for `O=c1c(O)c(-c2ccc(O)cc2)oc2cc(O)cc(O)c12` [kaempferol] here?
A: 5 milligrams per milliliter

Q: What about the “antibiotic properties (in words)” value [4] of the same compound?
A: antibiotic properties

Q: For `C=CC(C)(O)CCC=C(C)C` (centres unmarked) [linalool], which concentration that inhibits [9] is on record?
A: 1580 micrograms per milliliter

Q: For `O=c1cc(-c2ccc(O)c(O)c2)oc2cc(O)cc(O)c12` [luteolin], which concentration that kills [5] is on record?
A: 5 milligrams per milliliter

Q: For `O=c1cc(-c2ccccc2)oc2c(O)c(O)cc(O)c12` [norwogonin], which concentration that inhibits [8] is on record?
A: 1,000 micrograms per milliliter

Q: Which concentration that kills [11] does the source give for `S=C=NCCc1ccccc1` [phenylethyl isothiocyanate] here?
A: 2000 microgram per milliliter

Q: With `O=c1c(O)c(-c2ccc(O)c(O)c2)oc2cc(O)cc(O)c12` [quercetin] as the compound, how does the concentration that kills [3] read?
A: 1024 microgram per milliliter

Q: And the concentration that kills [5]?
A: 5 milligrams per milliliter

Q: And the “antibiotic properties (in words)” value [4]?
A: antibiotic properties

Q: With `O=C(O[C@@H]1Cc2c(O)cc(O)cc2O[C@@H]1c1cc(O)c(=O)c2c(O)c(O)cc([C@H]3Oc4cc(O)cc(O)c4C[C@H]3OC(=O)c3cc(O)c(O)c(O)c3)c2c1)c1cc(O)c(O)c(O)c1` [theaflavin digallate] as the compound, how does the “antibiotic properties (in words)” value [4] read?
A: antibiotic properties

Q: Which results are given for `O=c1c(O)cc([C@H]2Oc3cc(O)cc(O)c3C[C@H]2O)cc2c([C@H]3Oc4cc(O)cc(O)c4C[C@H]3O)cc(O)c(O)c12` [theaflavin]?
A: antibiotic properties (in words) [4]: antibiotic properties; concentration that inhibits [12]: 512 milligrams per liter

Q: With `Cn1cnc2c1c(=O)[nH]c(=O)n2C` [theobromine] as the compound, how does the “antibiotic properties (in words)” value [4] read?
A: antibiotic properties

Q: With `Cn1c(=O)c2[nH]cnc2n(C)c1=O` [theophylline] as the compound, how does the “antibiotic properties (in words)” value [4] read?
A: antibiotic properties

Q: Which concentration that kills [5] does the source give for catechin here?
A: 5 milligrams per milliliter

Q: What about the “antibiotic properties (in words)” value [4] of the same compound?
A: antibiotic properties

Q: For catechin gallate, which “antibiotic properties (in words)” value [4] is on record?
A: antibiotic properties

Q: Which results are given for piliostigmol?
A: inhibition (in words) [13]: inhibits; inhibition (in words) [14]: inhibits; inhibition (in words) [15]: inhibits; inhibition (in words) [16]: inhibits; inhibition (in words) [17]: inhibits; inhibition (in words) [18]: inhibits

Q: With pinene as the compound, how does the concentration that inhibits [19] read?
A: 20 microliters per milliliter

Q: With theaflavin gallate as the compound, how does the “antibiotic properties (in words)” value [4] read?
A: antibiotic properties

Q: Which “antibiotic properties (in words)” value [4] does the source give for theasinesin A here?
A: antibiotic properties

Q: With trechebulin as the compound, how does the concentration that inhibits [8] read?
A: 1,000 micrograms per milliliter
